Assay results: ChEMBL document CHEMBL4507315 (2021); call rule not given here

Experiments:
[1] = molecular target: Mitogen-activated protein kinase kinase kinase 20 (Homo sapiens, UniProt Q9NYL2); test: NanoBRET (MAP3K20)
[2] = system: Tyrosine-protein kinase ABL1 (Homo sapiens), P00519 [F317I]; settings: Compound concentration 100.0 nM
[3] = system: Tyrosine-protein kinase ABL1 (Homo sapiens), P00519 [H396P]; settings: Compound concentration 100.0 nM
[4] = molecular target: 5'-AMP-activated protein kinase catalytic subunit alpha-1 (Homo sapiens) (UniProt Q13131); settings: Compound concentration 100.0 nM
5'-AMP-activated protein kinase catalytic subunit alpha-1 (Homo sapiens), sequence (Q13131 whole entry, looked up): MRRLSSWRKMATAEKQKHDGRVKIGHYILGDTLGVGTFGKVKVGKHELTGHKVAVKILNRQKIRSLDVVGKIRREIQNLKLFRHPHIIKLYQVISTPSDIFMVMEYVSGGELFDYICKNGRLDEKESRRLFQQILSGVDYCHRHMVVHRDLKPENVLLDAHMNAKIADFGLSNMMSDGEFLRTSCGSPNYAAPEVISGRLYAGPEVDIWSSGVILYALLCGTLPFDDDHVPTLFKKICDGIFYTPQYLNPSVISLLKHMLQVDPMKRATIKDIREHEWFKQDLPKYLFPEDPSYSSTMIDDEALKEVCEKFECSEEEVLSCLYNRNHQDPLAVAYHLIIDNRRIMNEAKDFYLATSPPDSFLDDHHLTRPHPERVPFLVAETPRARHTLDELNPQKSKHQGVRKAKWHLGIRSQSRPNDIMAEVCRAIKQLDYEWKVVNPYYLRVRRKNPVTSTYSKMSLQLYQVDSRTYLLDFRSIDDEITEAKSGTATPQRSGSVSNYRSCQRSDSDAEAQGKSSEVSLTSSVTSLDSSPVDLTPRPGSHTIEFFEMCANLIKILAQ

[5] = molecular target: BMP-2-inducible protein kinase (Homo sapiens) (UniProt Q9NSY1); settings: Compound concentration 100.0 nM
BMP-2-inducible protein kinase (Homo sapiens), sequence (Q9NSY1 whole entry, looked up): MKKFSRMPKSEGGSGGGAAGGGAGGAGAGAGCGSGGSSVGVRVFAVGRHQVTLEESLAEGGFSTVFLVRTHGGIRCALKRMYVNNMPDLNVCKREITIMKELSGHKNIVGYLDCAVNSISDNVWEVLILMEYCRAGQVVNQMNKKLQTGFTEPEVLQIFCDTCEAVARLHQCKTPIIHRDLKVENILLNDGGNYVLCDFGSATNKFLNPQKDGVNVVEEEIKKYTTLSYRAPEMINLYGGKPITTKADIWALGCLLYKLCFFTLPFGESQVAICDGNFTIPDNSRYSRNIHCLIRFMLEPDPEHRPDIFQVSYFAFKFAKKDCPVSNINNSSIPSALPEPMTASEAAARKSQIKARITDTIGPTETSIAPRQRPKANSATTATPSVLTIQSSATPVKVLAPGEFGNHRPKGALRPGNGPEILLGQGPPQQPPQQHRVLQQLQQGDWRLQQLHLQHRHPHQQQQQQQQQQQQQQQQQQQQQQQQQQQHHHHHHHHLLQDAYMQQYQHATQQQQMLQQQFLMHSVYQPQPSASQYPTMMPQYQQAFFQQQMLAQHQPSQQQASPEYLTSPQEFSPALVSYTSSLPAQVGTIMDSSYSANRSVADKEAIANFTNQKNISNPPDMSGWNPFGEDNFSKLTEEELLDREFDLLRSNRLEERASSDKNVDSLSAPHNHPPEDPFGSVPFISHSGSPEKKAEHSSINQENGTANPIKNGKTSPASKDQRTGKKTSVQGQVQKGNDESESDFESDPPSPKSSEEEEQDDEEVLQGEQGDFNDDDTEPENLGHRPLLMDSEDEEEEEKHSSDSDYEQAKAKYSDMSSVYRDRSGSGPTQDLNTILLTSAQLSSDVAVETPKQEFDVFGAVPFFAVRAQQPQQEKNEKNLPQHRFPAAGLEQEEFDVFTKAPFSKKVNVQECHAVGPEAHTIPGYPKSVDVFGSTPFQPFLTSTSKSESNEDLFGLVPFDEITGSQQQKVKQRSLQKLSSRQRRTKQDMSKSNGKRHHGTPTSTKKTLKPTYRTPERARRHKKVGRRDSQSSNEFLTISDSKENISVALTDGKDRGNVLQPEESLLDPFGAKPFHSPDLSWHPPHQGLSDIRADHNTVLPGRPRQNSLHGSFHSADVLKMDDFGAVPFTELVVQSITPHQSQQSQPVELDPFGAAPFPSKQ

[6] = molecular target: Serine/threonine-protein kinase B-raf (Homo sapiens) (UniProt P15056); settings: Compound concentration 100.0 nM
[7] = molecular target: Tyrosine-protein kinase BTK (Homo sapiens) (UniProt Q06187); settings: Compound concentration 100.0 nM
Tyrosine-protein kinase BTK (Homo sapiens), sequence (Q06187 whole entry): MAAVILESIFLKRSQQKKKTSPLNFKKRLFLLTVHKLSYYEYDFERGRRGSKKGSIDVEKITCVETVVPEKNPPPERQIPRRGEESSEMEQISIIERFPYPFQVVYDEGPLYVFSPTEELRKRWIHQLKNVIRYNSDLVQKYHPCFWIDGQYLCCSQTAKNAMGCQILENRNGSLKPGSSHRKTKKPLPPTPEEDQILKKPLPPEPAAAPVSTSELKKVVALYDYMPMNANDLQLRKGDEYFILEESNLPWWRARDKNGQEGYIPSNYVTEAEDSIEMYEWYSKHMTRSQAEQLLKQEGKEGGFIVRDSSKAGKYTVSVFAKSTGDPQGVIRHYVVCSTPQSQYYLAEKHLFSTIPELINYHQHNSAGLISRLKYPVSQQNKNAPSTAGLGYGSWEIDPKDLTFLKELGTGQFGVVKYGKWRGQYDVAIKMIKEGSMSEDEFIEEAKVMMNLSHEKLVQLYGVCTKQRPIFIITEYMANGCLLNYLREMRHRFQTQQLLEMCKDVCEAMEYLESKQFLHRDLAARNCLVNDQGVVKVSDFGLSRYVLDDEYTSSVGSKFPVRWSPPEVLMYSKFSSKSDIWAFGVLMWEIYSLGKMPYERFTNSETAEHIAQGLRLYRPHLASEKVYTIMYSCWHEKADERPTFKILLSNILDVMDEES

[8] = molecular target: Calcium/calmodulin-dependent protein kinase type II subunit alpha (Homo sapiens) (UniProt Q9UQM7); settings: Compound concentration 100.0 nM
[9] = molecular target: Calcium/calmodulin-dependent protein kinase type IV (Homo sapiens) (UniProt Q16566); settings: Compound concentration 100.0 nM
Calcium/calmodulin-dependent protein kinase type IV (Homo sapiens), sequence (Q16566 whole entry): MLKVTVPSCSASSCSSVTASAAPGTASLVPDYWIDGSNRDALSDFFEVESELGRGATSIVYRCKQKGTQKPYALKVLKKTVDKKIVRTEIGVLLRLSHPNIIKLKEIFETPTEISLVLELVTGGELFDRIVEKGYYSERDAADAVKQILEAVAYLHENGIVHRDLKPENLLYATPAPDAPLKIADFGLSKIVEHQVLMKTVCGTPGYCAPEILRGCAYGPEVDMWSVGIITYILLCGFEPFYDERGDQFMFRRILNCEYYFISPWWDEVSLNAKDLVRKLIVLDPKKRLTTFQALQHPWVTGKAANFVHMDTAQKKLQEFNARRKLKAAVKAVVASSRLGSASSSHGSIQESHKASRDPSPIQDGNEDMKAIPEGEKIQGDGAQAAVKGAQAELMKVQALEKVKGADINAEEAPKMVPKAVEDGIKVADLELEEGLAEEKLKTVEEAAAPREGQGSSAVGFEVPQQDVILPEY

[10] = molecular target: Cyclin-dependent kinase 4 (Homo sapiens) (UniProt P11802); settings: Compound concentration 100.0 nM
Cyclin-dependent kinase 4 (Homo sapiens), sequence (P11802 whole entry): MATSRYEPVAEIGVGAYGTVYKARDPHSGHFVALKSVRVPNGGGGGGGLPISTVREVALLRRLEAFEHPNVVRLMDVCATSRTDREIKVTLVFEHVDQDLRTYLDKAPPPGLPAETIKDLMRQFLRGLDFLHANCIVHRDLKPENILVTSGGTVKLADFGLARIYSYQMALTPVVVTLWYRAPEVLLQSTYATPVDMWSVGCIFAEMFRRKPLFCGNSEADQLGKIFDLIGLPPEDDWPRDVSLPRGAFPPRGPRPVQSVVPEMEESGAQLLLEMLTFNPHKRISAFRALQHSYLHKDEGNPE

[11] = molecular target: Cyclin-dependent kinase 7 (Homo sapiens) (UniProt P50613); settings: Compound concentration 100.0 nM
Cyclin-dependent kinase 7 (Homo sapiens), sequence (P50613 whole entry): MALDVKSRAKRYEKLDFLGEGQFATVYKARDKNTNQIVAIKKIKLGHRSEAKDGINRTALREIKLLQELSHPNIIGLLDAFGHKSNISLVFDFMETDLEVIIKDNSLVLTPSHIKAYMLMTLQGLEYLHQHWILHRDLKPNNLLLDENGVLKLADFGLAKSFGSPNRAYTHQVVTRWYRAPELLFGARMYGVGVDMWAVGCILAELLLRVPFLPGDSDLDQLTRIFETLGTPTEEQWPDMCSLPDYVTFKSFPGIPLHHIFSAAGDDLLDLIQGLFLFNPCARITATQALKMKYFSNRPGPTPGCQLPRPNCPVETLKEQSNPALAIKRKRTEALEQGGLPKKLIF

[12] = molecular target: Dual specificity protein kinase CLK2 (Homo sapiens) (UniProt P49760); settings: Compound concentration 100.0 nM
[13] = molecular target: Casein kinase I isoform gamma-3 (Homo sapiens) (UniProt Q9Y6M4); settings: Compound concentration 100.0 nM
Casein kinase I isoform gamma-3 (Homo sapiens), sequence (Q9Y6M4 whole entry, looked up, the tested form may be a part, canonical isoform): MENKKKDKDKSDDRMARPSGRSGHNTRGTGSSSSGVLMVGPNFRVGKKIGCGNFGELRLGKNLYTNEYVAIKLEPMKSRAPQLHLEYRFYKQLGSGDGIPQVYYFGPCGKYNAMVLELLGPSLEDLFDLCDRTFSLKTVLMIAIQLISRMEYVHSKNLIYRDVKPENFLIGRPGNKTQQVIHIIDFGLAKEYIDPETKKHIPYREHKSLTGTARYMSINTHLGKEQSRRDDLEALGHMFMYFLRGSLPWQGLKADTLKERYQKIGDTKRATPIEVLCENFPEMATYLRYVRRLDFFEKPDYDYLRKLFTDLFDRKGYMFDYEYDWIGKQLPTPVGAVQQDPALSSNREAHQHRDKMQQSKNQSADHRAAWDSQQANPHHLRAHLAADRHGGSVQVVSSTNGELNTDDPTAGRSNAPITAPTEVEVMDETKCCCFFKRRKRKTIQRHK

[14] = molecular target: Discoidin domain-containing receptor 2 (Homo sapiens) (UniProt Q16832); settings: Compound concentration 100.0 nM
[15] = molecular target: Dual specificity tyrosine-phosphorylation-regulated kinase 1B (Homo sapiens) (UniProt Q9Y463); settings: Compound concentration 100.0 nM
[16] = system: Epidermal growth factor receptor (Homo sapiens), P00533 [G719C]; settings: Compound concentration 100.0 nM
[17] = system: Epidermal growth factor receptor (Homo sapiens), P00533 [UNDEFINED MUTATION]; settings: Compound concentration 100.0 nM
[18] = molecular target: Receptor tyrosine-protein kinase erbB-2 (Homo sapiens) (UniProt P04626); settings: Compound concentration 100.0 nM
[19] = molecular target: Mitogen-activated protein kinase 15 (Homo sapiens) (UniProt Q8TD08); settings: Compound concentration 100.0 nM
[20] = molecular target: Inhibitor of nuclear factor kappa-B kinase subunit beta (Homo sapiens) (UniProt O14920); settings: Compound concentration 100.0 nM
[21] = molecular target: Insulin receptor (Homo sapiens) (UniProt P06213); settings: Compound concentration 100.0 nM
[22] = molecular target: Mitogen-activated protein kinase 9 (Homo sapiens) (UniProt P45984); settings: Compound concentration 100.0 nM
[23] = molecular target: LIM domain kinase 1 (Homo sapiens) (UniProt P53667); settings: Compound concentration 100.0 nM
[24] = molecular target: Mitogen-activated protein kinase kinase kinase 1 (Homo sapiens) (UniProt Q13233); settings: Compound concentration 100.0 nM
[25] = molecular target: Mitogen-activated protein kinase kinase kinase 4 (Homo sapiens) (UniProt Q9Y6R4); settings: Compound concentration 100.0 nM
[26] = molecular target: Dual specificity mitogen-activated protein kinase kinase 7 (Homo sapiens) (UniProt O14733); settings: Compound concentration 100.0 nM
[27] = molecular target: Serine/threonine-protein kinase 3 (Homo sapiens) (UniProt Q13188); settings: Compound concentration 100.0 nM
[28] = molecular target: Serine/threonine-protein kinase PAK 1 (Homo sapiens) (UniProt Q13153); settings: Compound concentration 100.0 nM
[29] = molecular target: Calcium-dependent protein kinase 1 (Plasmodium falciparum) (UniProt P62344); settings: Compound concentration 100.0 nM
Calcium-dependent protein kinase 1 (Plasmodium falciparum), sequence (P62344 2-524 limits assumed): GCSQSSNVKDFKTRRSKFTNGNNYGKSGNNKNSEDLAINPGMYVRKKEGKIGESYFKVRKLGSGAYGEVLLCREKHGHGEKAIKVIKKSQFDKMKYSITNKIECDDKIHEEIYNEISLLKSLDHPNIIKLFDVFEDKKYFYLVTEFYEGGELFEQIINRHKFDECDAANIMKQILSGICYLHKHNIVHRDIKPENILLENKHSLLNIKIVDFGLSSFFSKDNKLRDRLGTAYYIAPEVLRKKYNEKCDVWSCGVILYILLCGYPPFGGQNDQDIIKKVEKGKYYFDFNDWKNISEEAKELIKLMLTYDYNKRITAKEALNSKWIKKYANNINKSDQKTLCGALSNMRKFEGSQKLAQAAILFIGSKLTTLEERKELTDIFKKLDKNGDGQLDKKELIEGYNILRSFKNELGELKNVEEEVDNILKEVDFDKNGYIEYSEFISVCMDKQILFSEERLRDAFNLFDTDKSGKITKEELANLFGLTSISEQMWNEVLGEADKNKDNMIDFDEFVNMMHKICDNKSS

[30] = molecular target: Phosphatidylinositol 4,5-bisphosphate 3-kinase catalytic subunit alpha isoform (Homo sapiens) (UniProt P42336); settings: Compound concentration 100.0 nM
[31] = molecular target: Phosphatidylinositol 4,5-bisphosphate 3-kinase catalytic subunit delta isoform (Homo sapiens) (UniProt O00329); settings: Compound concentration 100.0 nM
[32] = molecular target: Phosphatidylinositol 4-phosphate 5-kinase type-1 gamma (Homo sapiens) (UniProt O60331); settings: Compound concentration 100.0 nM
[33] = molecular target: Serine/threonine-protein kinase PknB (Mycobacterium tuberculosis) (UniProt P9WI81); settings: Compound concentration 100.0 nM
[34] = molecular target: Serine/threonine-protein kinase PLK2 (Homo sapiens) (UniProt Q9NYY3); settings: Compound concentration 100.0 nM
[35] = system: Proto-oncogene tyrosine-protein kinase receptor Ret (Homo sapiens), P07949 [V804M]; settings: Compound concentration 100.0 nM
[36] = molecular target: Ribosomal protein S6 kinase beta-1 (Homo sapiens) (UniProt P23443); settings: Compound concentration 100.0 nM
[37] = molecular target: TRAF2 and NCK-interacting protein kinase (Homo sapiens) (UniProt Q9UKE5); settings: Compound concentration 100.0 nM
[38] = molecular target: Non-receptor tyrosine-protein kinase TYK2 (Homo sapiens) (UniProt P29597); settings: Compound concentration 100.0 nM
[39] = molecular target: Tyrosine-protein kinase receptor TYRO3 (Homo sapiens) (UniProt Q06418); settings: Compound concentration 100.0 nM
[40] = molecular target: Serine/threonine-protein kinase WNK1 (Homo sapiens) (UniProt Q9H4A3); settings: Compound concentration 100.0 nM
[41] = molecular target: Tyrosine-protein kinase ZAP-70 (Homo sapiens) (UniProt P43403); settings: Compound concentration 100.0 nM
[42] = molecular target: 5-hydroxytryptamine receptor 7 (Homo sapiens) (UniProt P34969); settings: Compound concentration 10.0 uM
[43] = molecular target: Sodium-dependent noradrenaline transporter (Homo sapiens) (UniProt P23975); settings: Compound concentration 10.0 uM
Histamine H1 receptor = Histamine H1 receptor (Homo sapiens, UniProt P35367); settings: Compound concentration 10.0 uM
Histamine H1 receptor, sequence (P35367 whole entry): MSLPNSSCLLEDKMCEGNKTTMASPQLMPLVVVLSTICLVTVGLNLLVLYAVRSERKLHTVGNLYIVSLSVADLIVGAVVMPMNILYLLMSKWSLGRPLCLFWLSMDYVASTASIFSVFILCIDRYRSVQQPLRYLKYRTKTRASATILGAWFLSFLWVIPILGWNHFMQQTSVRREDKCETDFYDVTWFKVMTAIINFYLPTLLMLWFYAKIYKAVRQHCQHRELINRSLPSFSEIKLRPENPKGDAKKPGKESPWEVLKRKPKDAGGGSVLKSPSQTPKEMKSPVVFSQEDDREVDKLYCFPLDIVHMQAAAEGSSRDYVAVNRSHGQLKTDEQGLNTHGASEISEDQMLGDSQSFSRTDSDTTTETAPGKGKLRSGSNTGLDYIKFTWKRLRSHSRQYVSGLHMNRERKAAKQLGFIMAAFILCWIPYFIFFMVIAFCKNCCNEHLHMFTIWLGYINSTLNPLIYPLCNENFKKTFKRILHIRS

[44] = molecular target: Muscarinic acetylcholine receptor M1 (Homo sapiens) (UniProt P11229); settings: Compound concentration 10.0 uM

O=C(NCCCC1CCCCC1)c1ccc(CNC(=O)c2cnn(-c3ccccc3)c2C(F)(F)F)cc1 [SR-321]
IC50 [1]: 5.8 µM (not active) | residual activity [2]: 100% | residual activity [3]: 98% | residual activity [4]: 100% | residual activity [5]: 100% | residual activity [6]: 100% | residual activity [7]: 100% | residual activity [8]: 100% | residual activity [9]: 100% | residual activity [10]: 100% | residual activity [11]: 100% | residual activity [12]: 100% | residual activity [13]: 100% | residual activity [14]: 100% | residual activity [15]: 100% | residual activity [16]: 96% | residual activity [17]: 100% | residual activity [18]: 100% | residual activity [19]: 100% | residual activity [20]: 100% | residual activity [21]: 100% | residual activity [22]: 85% | residual activity [23]: 100% | residual activity [24]: 65% | residual activity [25]: 100% | residual activity [26]: 100% | residual activity [27]: 100% | residual activity [28]: 92% | residual activity [29]: 100% | residual activity [30]: 100% | residual activity [31]: 100% | residual activity [32]: 90% | residual activity [33]: 100% | residual activity [34]: 100% | residual activity [35]: 100% | residual activity [36]: 96% | residual activity [37]: 100% | residual activity [38]: 100% | residual activity [39]: 100% | residual activity [40]: 100% | residual activity [41]: 100% | inhibition [42]: 25.8% | inhibition [43]: -1.78% | inhibition (Histamine H1 receptor): 63% | inhibition [44]: 11.8%

Nc1c(C(=O)NCc2ccc(C(=O)NCCCC3CCCCC3)cc2)cnn1-c1ccccc1 [SR-318]
IC50 [1]: 0.91 µM (not active) | residual activity [2]: 92% | residual activity [3]: 80% | residual activity [4]: 100% | residual activity [5]: 100% | residual activity [6]: 90% | residual activity [7]: 100% | residual activity [8]: 100% | residual activity [9]: 98% | residual activity [10]: 100% | residual activity [11]: 100% | residual activity [12]: 100% | residual activity [13]: 100% | residual activity [14]: 56% | residual activity [15]: 100% | residual activity [16]: 85% | residual activity [17]: 100% | residual activity [18]: 100% | residual activity [19]: 100% | residual activity [20]: 100% | residual activity [21]: 100% | residual activity [22]: 100% | residual activity [23]: 100% | residual activity [24]: 96% | residual activity [25]: 81% | residual activity [26]: 99% | residual activity [27]: 100% | residual activity [28]: 100% | residual activity [29]: 86% | residual activity [30]: 100% | residual activity [31]: 94% | residual activity [32]: 93% | residual activity [33]: 100% | residual activity [34]: 100% | residual activity [35]: 98% | residual activity [36]: 100% | residual activity [37]: 100% | residual activity [38]: 100% | residual activity [39]: 100% | residual activity [40]: 100% | residual activity [41]: 100% | inhibition [42]: 13.2% | inhibition [43]: 13.5% | inhibition (Histamine H1 receptor): 14.7% | inhibition [44]: 31.1%
